Measured values: US11242351B2, “Tricyclic inhibitors of the BCL6 BTB domain protein-protein interaction and uses thereof” (priority 2017, dated 2022)
Like-named read-outs stand apart in the source and are kept apart here.

Assays:
[1] = target: BCL6 BTB domain (biotin-thrombin-BCL6 amino acids 1-129) (Homo sapiens (Human), UniProt P41182); test: Surface Plasmon Resonance (SPR) assay; format: binding; settings: Biacore T200, single cycle kinetic analysis
Procedure: Surface Plasmon Resonance (SPR) Assay
SPR studies were performed using a Biacore™ T200 instrument (GE Health Sciences Inc.). […] The Biacore flow rate was set at 100 μl/min. […] Curve fitting and KD calculations were performed with the Biacore T200 Evaluation software (GE Health Sciences Inc).

[2] = system: BCL6 reporter construct in SuDHL4-3×BCL6-TK-Luc cells; test: Cell-based luciferase assay (BCL6 reporter); settings: 48 h, read-out: Luc IC50
In short: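 SuDHL4 cells stably carrying a 3×BCL6-site TK-promoter firefly luciferase reporter, 15,000 cells/well, dosed over 10 concentrations (top 10 μM) and cultured two days at 37° C, 5% CO2. Luciferase luminescence read after room-temperature equilibration with neolite reagent.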

[3] = system: Karpas422 cells; test: Tumor cell growth inhibition assay; format: cell-based; settings: Homo sapiens, KARPAS-422, 144 h, read-out: GI Karpas EC50
In short: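 Karpas422 cells were dosed over a 10-point concentration range (top 5 μM) and grown 6 days at 37 °C, 5% CO2, in Alpha-MEM with 10% FBS. Viability was read as ATPlite luminescence.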

[4] = SuDHL4-3×BCL6-TK-Luc cells, two days
[5] = Karpas422 cells, six days, ATPlite

SMILES	Kd [1] [nM]	IC50 [2, 4] [nM]	EC50 [3, 5] [nM]	IC50 [2] [nM]	EC50 [3] [nM]
CC1Cc2nc3c(c(-c4cc(Cl)c(O)c(C(N)=O)c4)cn3CC(=O)Nc3cc(N4CCOC[C@@H]4C)nc(F)c3Cl)c(=O)n2C1 (stereo partly drawn) [I-66, 3-chloro-5-(1-(2-((3-chloro-2-fluoro-6-((S)-3-methylmor-pholino)pyridin-4-yl)amino)-2-oxo-ethyl)-7-methyl-4-oxo-4,6,7,8-tetra-hydro-1H-dipyrrolo [1,2-a:2′,3′-d]pyrimi-din-3-yl)-2-hydroxy-benzamide]	15.9	186	74.2	–	–
C[C@H]1CN(CC2CC2)CCN1c1cc(NC(=O)Cn2cc(-c3cc(C(N)=O)c(O)c(Cl)c3F)c3c(=O)n4c(nc32)CCC4)c(Cl)c(F)n1 [I-29, (S)-3-chloro-5-(1-(2-((3-chloro-6-(4-(cyclopropylmethyl)-2-methylpiperazin-1-yl)-2-fluoropyridin-4-yl)amino)-2-oxoethyl)-4-oxo-4,6,7,8-tetra-hydro-1H-dipyrrolo [1,2-a:2′,3′-d]pyrimi-din-3-yl)-4-fluoro-2-hydroxybenzamide]	240	–	–	2150	2590
CN(C)c1cc(NC(=O)Cn2cc(-c3cc(C(N)=O)c(O)c(Cl)c3F)c3c(=O)n4c(nc32)CCC4)c(Cl)c(F)n1 [I-27, 3-chloro-5-(1-(2-((3-chloro-6-(dimethyl-amino)-2-fluoro-pyridin-4-yl)amino)-2-oxoethyl)-4-oxo-4,6,7,8-tetrahydro-1H-dipyrrolo[1,2-a:2′,3′-d]pyrimidin-3-yl)-4-fluoro-2-hydroxy-benzamide]	190	–	–	1140	1630
C[C@H]1CN(CC2CC2)CCN1c1cc(NC(=O)Cn2cc(-c3cc(C(N)=O)c(O)c(F)c3F)c3c(=O)n4c(nc32)CCC4)c(Cl)c(F)n1 [I-24, (S)-5-(1-(2-((3-chloro-6-(4-(cyclopropylmethyl)-2-methylpiperazin-1-yl)-2-fluoropyridin-4-yl)amino)-2-oxoethyl)-4-oxo-4,6,7,8-tetrahydro-1H-dipyrrolo[1,2-a:2′,3′-d]pyrimidin-3-yl)-3,4-difluoro-2-hydroxy-benzamide]	12.3	152	134	–	–
C[C@H]1CN(C)CCN1c1cc(NC(=O)Cn2cc(-c3cc(C(N)=O)c(O)c4c3OCO4)c3c(=O)n4c(nc32)CC(C)(C)C4)c(Cl)c(F)n1 [I-92, (S)-7-(1-(2-((3-chloro-6-(2,4-dimethylpipera-zin-1-yl)-2-fluoro-pyridin-4-yl)amino)-2-oxoethyl)-7,7-dimethyl-4-oxo-4,6,7,8-tetra-hydro-1H-dipyrrolo [1,2-a:2′,3′-d]pyrimi-din-3-yl)-4-hydroxy-benzo[d][1,3]dioxole-5-carboxamide]	0.87	12.4	9.22	–	–
C[C@H]1CN(C)CCN1c1cc(NC(=O)Cn2cc(-c3cc(C(N)=O)c(O)c(F)c3F)c3c(=O)n4c(nc32)COCC4)c(Cl)c(F)n1 [I-33, (S)-5-(1-(2-((3-chloro-6-(2,4-dimethylpiperazin-1-yl)-2-fluoropyridin-4-yl)amino)-2-oxoethyl)-4-oxo-4,6,7,9-tetrahydro-1H-pyrrolo[2′,3′:4,5]pyrimido[2,1-c][1,4]oxazin-3-yl)-3,4-difluoro-2-hydroxybenzamide]	11	–	–	149	214
CC1Cc2nc3c(c(-c4cc(Cl)c(O)c(C(N)=O)c4)cn3CC(=O)Nc3cc(N4CCN(C)C[C@@H]4C)nc(F)c3Cl)c(=O)n2C1 (stereo partly drawn) [I-65, 3-chloro-5-(1-(2-((3-chloro-6-((S)-2,4-dimethylpiperazin-1-yl)-2-fluoropyridin-4-yl)amino)-2-oxo-ethyl)-7-methyl-4-oxo-4,6,7,8-tetra-hydro-1H-dipyrrolo [1,2-a:2′,3′-d]pyrimi-din-3-yl)-2-hydroxy-benzamide]	6.28	46.8	42.1	–	–
COc1c(O)c(C(N)=O)cc(-c2cn(CC(=O)Nc3cc(N4CCOC[C@@H]4C)ncc3Cl)c3nc4n(c(=O)c23)CCC4)c1F [I-18, (S)-5-(1-(2-((5-chloro-2-(3-methylmorpholino)pyridin-4-yl)amino)-2-oxoethyl)-4-oxo-4,6,7,8-tetrahydro-1H-dipyrrolo[1,2-a:2′,3′-d]pyrimidin-3-yl)-4-fluoro-2-hydroxy-3-methoxybenzamide]	34.3	–	–	818	688
CN1C[C@H]2CC[C@@H](C1)N2c1cc(NC(=O)Cn2cc(-c3cc(C(N)=O)c(O)c(F)c3F)c3c(=O)n4c(nc32)CCC4)c(Cl)cn1 [I-56, 5-(1-(2-((5-chloro-2-((1R,5S)-3-methyl-3,8-diazabicyclo[3.2.1]octan-8-yl)pyridin-4-yl)amino)-2-oxoethyl)-4-oxo-4,6,7,8-tetrahydro-1H-dipyrrolo[1,2-a:2′,3′-d]pyrimidin-3-yl)-3,4-difluoro-2-hydroxy-benzamide]	38.7	684	586	–	–
C[C@H]1CN(C2COC2)CCN1c1cc(NC(=O)Cn2cc(-c3cc(C(N)=O)c(O)c(Cl)c3F)c3c(=O)n4c(nc32)CCC4)c(Cl)cn1 [I-14, (S)-3-chloro-5-(1-(2-((5-chloro-2-(2-methyl-4-(oxetan-3-yl)piperazin-1-yl)pyridin-4-yl)amino)-2-oxoethyl)-4-oxo-4,6,7,8-tetrahydro-1H-dipyrrolo[1,2-a:2′,3′-d]pyrimidin-3-yl)-4-fluoro-2-hydroxy-benzamide]	58.1	774	698	–	–
C[C@H]1CN(C)CCN1c1cc(NC(=O)Cn2cc(-c3cc(C(N)=O)c(O)c4c3OCO4)c3c(=O)n4c(nc32)COCC4)c(Cl)c(F)n1 [I-94, (S)-7-(1-(2-((3-chloro-6-(2,4-dimethylpipera-zin-1-yl)-2-fluoro-pyridin-4-yl)amino)-2-oxoethyl)-4-oxo-4,6,7,9-tetrahydro-1H-pyrrolo[2′,3′:4,5]pyri-mido[2,1-c][1,4]oxazin-3-yl)-4-hydroxybenzo [d][1,3]dioxole-5-carboxamide]	1.33	28.3	17.8	–	–
C[C@H]1CN(C)C[C@H](C)N1c1cc(NC(=O)Cn2cc(-c3cc(F)c(O)c(C(N)=O)c3)c3c(=O)n4c(nc32)CCC4)c(Cl)c(F)n1 [I-83, 5-(1-(2-((3-chloro-2-fluoro-6-((2S,6S)-2,4,6-trimethylpiperazin-1-yl)pyridin-4-yl)amino)-2-oxoethyl)-4-oxo-4,6,7,8-tetrahydro-1H-dipyrrolo[1,2-a:2′,3′-d]pyrimidin-3-yl)-3-fluoro-2-hydroxy-benzamide]	11.2	465	109	–	–
NC(=O)c1cc(-c2cn(CC(=O)Nc3cc(N4CCOCC4)c(F)cc3Cl)c3nc4n(c(=O)c23)CCC4)c(F)c(F)c1O [I-30, 5-(1-(2-((2-chloro-4-fluoro-5-morpholino-phenyl)amino)-2-oxo-ethyl)-4-oxo-4,6,7,8-tetrahydro-1H-dipyrrolo [1,2-a:2′,3′-d]pyrimidin-3-yl)-3,4-difluoro-2-hydroxybenzamide]	106	–	–	1110	980
COc1c(-c2cn(CC(=O)Nc3cc(N4CCOC[C@@H]4C)ncc3Cl)c3nc4n(c(=O)c23)CCC4)cc(C(N)=O)c(O)c1OC [I-69, (S)-5-(1-(2-((5-chloro-2-(3-methylmorpholino)pyridin-4-yl)amino)-2-oxoethyl)-4-oxo-4,6,7,8-tetrahydro-1H-dipyrrolo[1,2-a:2′,3′-d]pyrimidin-3-yl)-2-hydroxy-3,4-dimethoxy-benzamide]	294	7970	10000	–	–
CC1Cc2nc3c(c(-c4cc(C(N)=O)c(O)c5c4OCO5)cn3CC(=O)Nc3cc(N4CCOC[C@@H]4C)ncc3Cl)c(=O)n2C1 (stereo partly drawn) [I-88, 7-(1-(2-((5-chloro-2-((S)-3-methylmorpho-lino)pyridin-4-yl)amino)-2-oxoethyl)-7-methyl-4-oxo-4,6,7,8-tetrahydro-1H-dipyrrolo[1,2-a:2′,3′-d]pyrimidin-3-yl)-4-hydroxybenzo[d][1,3] dioxole-5-carboxamide]	2.14	39.4	17.6	–	–
C[C@H]1COCCN1c1cc(NC(=O)Cn2cc(-c3cc(Cl)c(O)c(C(N)=O)c3)c3c(=O)n4c(nc32)CC(C)(C)C4)c(Cl)c(F)n1 [I-59, (S)-3-chloro-5-(1-(2-((3-chloro-2-fluoro-6-(3-methylmorpho-lino)pyridin-4-yl)amino)-2-oxoethyl)-7,7-dimethyl-4-oxo-4,6,7,8-tetrahydro-1H-dipyrrolo[1,2-a:2′,3′-d]pyrimidin-3-yl)-2-hydroxybenzamide]	23.4	190	48.8	–	–
COc1c(-c2cn(CC(=O)Nc3cc(N4CCN(C5COC5)C[C@@H]4C)nc(F)c3Cl)c3nc4n(c(=O)c23)CCC4)cc(C(N)=O)c(O)c1OC [I-72, (S)-5-(1-(2-((3-chloro-2-fluoro-6-(2-methyl-4-(oxetan-3-yl)pipera-zin-1-yl)pyridin-4-yl)amino)-2-oxoethyl)-4-oxo-4,6,7,8-tetra-hydro-1H-dipyrrolo [1,2-a:2′,3′-d]pyrimi-din-3-yl)-2-hydroxy-3,4-dimethoxy-benzamide]	85.1	–	–	1560	429
